The results in this text go back to patent publication US20250042904A1, “COMPOUNDS USED AS SRC INHIBITORS” (WIGEN BIOMEDICINE TECHNOLOGY (SHANGHAI) CO., LTD., priority 2021, published 2025).

A word on the IC50: it is the midpoint of a concentration-inhibition curve. Broadly, the AUC(0-t) is the area under the concentration-time curve up to a stated or last time point. For orientation: Cmax means the peak of the concentration-time curve. For orientation: bioavailability means dose-corrected exposure relative to a reference, in per cent. A lower bioavailability goes with poor availability. In general, half-life refers to the time needed for the level to fall by half in the phase considered. The term clearance denotes the rate of elimination divided by the concentration.

Series [1] concerns the target recombinant protein Src (Homo sapiens (Human), UniProt P12931). Put plainly: In vitro assay for inhibiting Src kinase activity (biotin-labeled TK substrate, Sa-XL 665, Cryptate-labeled antibody). In kind it is biochemical. Particulars: read-out: IC50, inhibitory activity against recombinant protein Src. The method, then:
After the compound serially diluted with DMSO and a Src recombinant protein were incubated at room temperature for 10 min, the reaction was initiated by the addition of a biotin-labeled TK substrate and ATP. After the mixture was left to stand at room temperature for 40 min Sa-XL 665 and a Cryptate-labeled antibody were added. The fluorescence values at 615 nm and 665 nm were measured, and the ratio of 665 nm to 615 nm was calculated. The inhibition percentages and IC50 of the compounds were calculated compared to the DMSO group.

Series [2] relates to PC3 cells. The experiment in a line: In vitro anti-proliferative activity against PC3 cells (agarose, 7 days). It is filed as cell-based. Conditions: Homo sapiens, PC-3, 168 h, 7 days of incubation. The method, then:
PC3 cells were mixed with 0.4% agarose at 1200 cells/well, and the mixture was seeded on 0.6% agarose. The compound serially diluted was added, and the cell number was measured after 7 days of incubation. The inhibition percentages and IC50 of the compounds were calculated compared to the DMSO group.

Series [3] in a line: Stability experiment in aqueous hydrochloric acid solution pH 2 (HPLC). It is filed as physicochemical. The method, then:
5 mg each of compound 59 and compound A was dissolved in an aqueous hydrochloric acid solution (5 mL) with a pH of 2. The mixture was stirred at room temperature. Samples were taken after 0.5 h for HPLC assay using the following assay conditions. The HPLC assay results are shown in Table 7. • Instrument: Agilent 1260 infinity 2 • Column: Xtimate C18 4.6*150 mm,3 um • Temperature:25° C. • Wave length:210 nm/254 nm • phase A: H2O (0.1% TFA) • phase B: MECN (0.1% TFA) • Gradient: […]

The nature of series [4]: In vivo pharmacokinetic experiment in CD-1 female mice. Conditions: mouse, plasma, CD-1 mice. Here is the method:
CD-1 female mice aged 7 to 10 weeks were intravenously administered and orally administered at a dose of 2 mg/kg and 10 mg/kg, respectively. The mice were fasted for at least 12 h before the administration and given food 4 h after the administration, and they were given ad libitum access to water during the experiment. On the day of the experiment, animals in the intravenous group were administered the corresponding compound by single injection via the tail vein at an administration volume of 10 mL/kg. Animals in the oral group were administered the corresponding compound by single intragastric injection at an administration volume of 10 mL/kg. The animals were weighed before administration, and the administration volume was calculated according to the body weight. The sample collection time was 0.083 h (injection group), 0.167 h, 0.5 h, 1 h, 2 h, 4 h, 8 h, and 24 h. About 200 μL of whole blood was collected through the submaxillary venous plexus at each time point and used to prepare plasma for concentration determination by high-performance liquid chromatography-tandem mass spectrometry (LC-MS/MS). All animals were euthanized with CO2 anesthesia after the PK samples were collected at the last time point. The plasma concentrations were processed using a non-compartmental model of Phoenix WinNonlin™ version 8.3 (Certara) pharmacokinetic software, and the pharmacokinetic parameters were calculated using a linear-log trapezoidal method.

A value given as a limit tells only on which side of the number the result lay.

Sequence of recombinant protein Src (P12931 whole entry, looked up): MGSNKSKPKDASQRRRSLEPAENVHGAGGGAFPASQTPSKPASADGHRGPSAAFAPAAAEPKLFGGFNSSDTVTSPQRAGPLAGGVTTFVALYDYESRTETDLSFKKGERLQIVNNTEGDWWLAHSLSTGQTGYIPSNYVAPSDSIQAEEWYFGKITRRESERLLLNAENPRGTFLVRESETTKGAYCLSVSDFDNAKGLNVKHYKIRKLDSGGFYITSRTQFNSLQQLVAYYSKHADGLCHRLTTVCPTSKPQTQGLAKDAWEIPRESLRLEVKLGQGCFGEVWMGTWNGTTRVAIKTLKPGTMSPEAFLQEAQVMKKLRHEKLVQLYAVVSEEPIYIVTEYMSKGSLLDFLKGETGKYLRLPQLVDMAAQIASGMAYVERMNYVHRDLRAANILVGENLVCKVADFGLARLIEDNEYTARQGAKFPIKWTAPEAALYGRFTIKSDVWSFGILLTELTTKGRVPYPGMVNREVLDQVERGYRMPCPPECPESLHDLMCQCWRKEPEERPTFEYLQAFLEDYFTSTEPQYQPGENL

Turning to `CN(C)C1CCN(CCn2nc(-c3ccc(NC(=O)OC(C)(C)C)c4c3OCO4)c3c(N)ncnc32)CC1` [Compound 1], the IC50 in series [1] was at most 10 nM; in series [2] it was 3.5 nM.
In the case of `CN(C)C1CCN(CCn2nc(-c3ccc(NC(=O)OC4CC4)c4c3OCO4)c3c(N)ncnc32)CC1` [Compound 2], the IC50 in series [1] was at most 10 nM.
With `CN(C)C1CCN(CCn2nc(-c3ccc(NC(=O)OC4(C)CC4)c4c3OCO4)c3c(N)ncnc32)CC1` [Compound 3], the IC50 is at most 10 nM in series [1] and 4.8 nM in series [2].
`CN(C)C1CCN(CCn2nc(-c3ccc(NC(=O)OC4CCC4)c4c3OCO4)c3c(N)ncnc32)CC1` [Compound 4]: the IC50 in series [1] was at most 10 nM.
On to `CN(C)C1CCN(CCn2nc(-c3ccc(NC(=O)OC4(C)CCC4)c4c3OCO4)c3c(N)ncnc32)CC1` [Compound 5], for which the half-maximal inhibitory concentration (IC50) in series [1] was at most 10 nM; in series [2] it was 4.2 nM.
Turning to `CN(C)C1CCN(CCn2nc(-c3ccc(NC(=O)OC4C5CC4C5)c4c3OCO4)c3c(N)ncnc32)CC1` (stereo not shown) [Compound 6], the IC50 in series [1] was at most 10 nM.
Still for that read-out and setting: as for `CN(C)C1CCN(CCn2nc(-c3ccc(NC(=O)OC45CC(C4)C5)c4c3OCO4)c3c(N)ncnc32)CC1` [Compound 7], the figure is at most 10 nM; as for `CC(C)OC(=O)Nc1ccc(-c2nn(CCN3CCC(N(C)C)CC3)c3ncnc(N)c23)c2c1OCO2` [Compound 8], 10 to 50 nM; as for `CCOC(=O)Nc1ccc(-c2nn(CCN3CCC(N(C)C)CC3)c3ncnc(N)c23)c2c1OCO2` [Compound 9], 10 to 50 nM.
In the case of `CN(C)C1CCN(CCn2nc(-c3ccc(NC(=O)OC4CC(F)(F)C4)c4c3OCO4)c3c(N)ncnc32)CC1` [Compound 12], the IC50 in series [1] is at most 10 nM.
On to `CN(C)C1CCN(CCn2nc(-c3ccc(NC(=O)OC4CCCC4)c4c3OCO4)c3c(N)ncnc32)CC1` [Compound 13], for which the concentration for half-maximal inhibition (IC50) in series [1] lay within 10 to 50 nM.
Same read-out and setting: as for `CN(C)C1CCN(CCn2nc(-c3ccc(NC(=O)OC4COC4)c4c3OCO4)c3c(N)ncnc32)CC1` [Compound 14], the figure is at most 10 nM; as for `CN(C)C1CCN(CCn2nc(-c3cc(F)c(NC(=O)OC(C)(C)C)c4c3OCO4)c3c(N)ncnc32)CC1` [Compound 17], 10 to 50 nM.
Still for that read-out and setting: as for `CN(C)C1CCN(CCn2nc(-c3c(F)cc(NC(=O)OC(C)(C)C)c4c3OCO4)c3c(N)ncnc32)CC1` [Compound 18], the figure is 10 to 50 nM.
The same measure, in the same setting: the figure for `CN(C)C1CCN(CCn2nc(-c3cnc(NC(=O)OC(C)(C)C)c4c3OCO4)c3c(N)ncnc32)CC1` [Compound 19] is 10 to 50 nM.
Take `CN(C)C1CCN(CCn2nc(-c3ncc(NC(=O)OC(C)(C)C)c4c3OCO4)c3c(N)ncnc32)CC1` [Compound 20]: the IC50 in series [1] lay within 10 to 50 nM.
On the same count and under the same terms, the figure for `CN(C1CC1)C1CCN(CCn2nc(-c3ccc(NC(=O)OC(C)(C)C)c4c3OCO4)c3c(N)ncnc32)CC1` [Compound 36] is at most 10 nM.
As to `CC(C)(C)OC(=O)Nc1ccc(-c2nn(CCN3CCC(N4CCCC4)CC3)c3ncnc(N)c23)c2c1OCO2` [Compound 37], the IC50 was at most 10 nM in series [1] and 11.7 nM in series [2].
For `CN(C)[C@H]1CCN(CCn2nc(-c3ccc(NC(=O)OC(C)(C)C)c4c3OCO4)c3c(N)ncnc32)C1` [Compound 38], the IC50 in series [1] was at most 10 nM.
On the same count and under the same terms, as for `CN(C)[C@@H]1CCN(CCn2nc(-c3ccc(NC(=O)OC(C)(C)C)c4c3OCO4)c3c(N)ncnc32)C1` [Compound 39], the figure is at most 10 nM; as for `CC(C)(C)OC(=O)Nc1ccc(-c2nn(CCN3CCN(CCO)CC3)c3ncnc(N)c23)c2c1OCO2` [Compound 41], at most 10 nM; as for `CN(C)CCN1CCN(CCn2nc(-c3ccc(NC(=O)OC(C)(C)C)c4c3OCO4)c3c(N)ncnc32)CC1` [Compound 42], at most 10 nM.
Same read-out and setting: the figure for `CN(C)CC1CCN(CCn2nc(-c3ccc(NC(=O)OC(C)(C)C)c4c3OCO4)c3c(N)ncnc32)CC1` [Compound 43] is at most 10 nM; for `CN(C)CCC1CCN(CCn2nc(-c3ccc(NC(=O)OC(C)(C)C)c4c3OCO4)c3c(N)ncnc32)CC1` [Compound 44] it is at most 10 nM; for `COCCN1CCN(CCn2nc(-c3ccc(NC(=O)OC(C)(C)C)c4c3OCO4)c3c(N)ncnc32)CC1` [Compound 45] it is at most 10 nM.
The same measure, in the same setting: as for `CC(C)(C)OC(=O)Nc1ccc(-c2nn(CCN3CCC(C#N)CC3)c3ncnc(N)c23)c2c1OCO2` [Compound 46], the figure is at most 10 nM; as for `CN1CCN(C2CCN(CCn3nc(-c4ccc(NC(=O)OC(C)(C)C)c5c4OCO5)c4c(N)ncnc43)CC2)CC1` [Compound 47], at most 10 nM.
Take `CN1CC(OC(=O)Nc2ccc(-c3nn(CCN4CCC(N5CCC5)CC4)c4ncnc(N)c34)c3c2OCO3)C1` [Compound 48]: the IC50 in series [1] was at most 10 nM.
Still for that read-out and setting: the figure for `CN1CCC2(CC1)CCN(CCn1nc(-c3ccc(NC(=O)OC(C)(C)C)c4c3OCO4)c3c(N)ncnc31)CC2` [Compound 49] is at most 10 nM.
The same measure, in the same setting: as for `CN(C)CCN(C)CCn1nc(-c2ccc(NC(=O)OC(C)(C)C)c3c2OCO3)c2c(N)ncnc21` [Compound 50], the figure is at most 10 nM; as for `CN(C)C1CCN(CCn2nc(-c3ccc(NC(=O)OC(C)(C)C)c4c3OC(F)(F)O4)c3c(N)ncnc32)CC1` [Compound 51], at most 10 nM; as for `CN(C)C1CCN(CCCn2nc(-c3ccc(NC(=O)OC(C)(C)C)c4c3OCO4)c3c(N)ncnc32)CC1` [Compound 52], at most 10 nM.
Same read-out and setting: as for `CC(C)(C)OC(=O)Nc1ccc(-c2nn(CCN3CCC(N4CCOCC4)CC3)c3ncnc(N)c23)c2c1OCO2` [Compound 57], the figure is at most 10 nM.
As to `COC1CCN(CCn2nc(-c3ccc(NC(=O)OC(C)(C)C)c4c3OCO4)c3c(N)ncnc32)CC1` [Compound 58], the IC50 in series [1] was at most 10 nM.
Still for that read-out and setting: as for `COc1cc(-c2nn(CCN3CCC(N(C)C)CC3)c3ncnc(N)c23)ccc1NC(=O)OC1CCC1` [Compound 60], the figure is at most 10 nM.
Turning to `COc1cc(-c2nn(CCN3CCC(N(C)C)CC3)c3ncnc(N)c23)ccc1NC(=O)OC1(C)CCC1` [Compound 61], the results for the IC50 in series [1] and in series [2] were at most 10 nM and 5.6 nM, respectively.
Turning to `COc1cc(-c2nn(CCN3CCC(N(C)C4CC4)CC3)c3ncnc(N)c23)ccc1NC(=O)OC(C)(C)C` [Compound 62], the values for the IC50 in series [1] and in series [2] were at most 10 nM and 10.1 nM, respectively.
For `COc1cc(-c2nn(CCN3CCC(N(C)C)CC3)c3ncnc(N)c23)ccc1NC(=O)OC1CC1` [Compound 63], in series [1], the IC50 is at most 10 nM.
On the same count and under the same terms, as for `COc1cc(-c2nn(CCN3CCC(N(C)C)CC3)c3ncnc(N)c23)ccc1NC(=O)OC1C2CC1C2` (stereo not shown) [Compound 64], the figure is at most 10 nM; as for `COc1cc(-c2nn(CCN3CCC(N(C)C)CC3)c3ncnc(N)c23)ccc1NC(=O)OC12CC(C1)C2` [Compound 65], at most 10 nM.
In the case of `COc1cc(-c2nn(CCN3CCC(N(C)C4CC4)CC3)c3ncnc(N)c23)ccc1NC(=O)OC1(C)CCC1` [Compound 68], the IC50 in series [1] is at most 10 nM; in series [2], 15.2 nM.
Taken in the same sequence, the figures for `COc1cc(-c2nn(CCN3CCC(N(C)C4CC4)CC3)c3ncnc(N)c23)ccc1NC(=O)OC1(C)CC1` [Compound 69] were at most 10 nM and 12.5 nM.
Consider `COc1cc(-c2nn(CCN3CCC(N(C)C)CC3)c3ncnc(N)c23)ccc1NC(=O)OC1CC(F)(F)C1` [Compound 70], for which, in series [1], the IC50 was at most 10 nM.
In series [3] (before acid treatment (baseline)), `COc1cc(-c2nn(CCN3CCC(N(C)C)CC3)c3ncnc(N)c23)ccc1NC(=O)OC(C)(C)C` [Compound A, reference compound] registered an Initial purity of 96.18%. The “Purity after stirring in an aqueous hydrochloric acid solution with a pH of 2 for 0.5 h” value in series [3] (pH 2, room temperature, 0.5 h) was “Complete degradation”. Also, in series [4] (oral administration 10 mg/kg), the AUC(0-t) is 1440 ng·h/mL, the concentration peaked (Cmax) at 211 ng/mL, the bioavailability was 42.9% and the half-life was 5.7 h. In series [4] (iv, injection 2 mg/kg), the exposure AUC(0-t) was 682 ng·h/mL, the clearance was 775 mL/min/kg and the half-life was 6.4 h. The Vd in series [4] (iv, injection 2 mg/kg, read-out: Vdss) stood at 15.2 L/kg.
